Test results taken from patent publication EP3434255A1, “IONTOPHORESIS METHOD, COMPOSITION AND KIT FOR DELIVERING N-ACETYL-3-TRIFLUOROMETHYL-PHENYL-(VALINE-GLYCINE) THROUGH THE SKIN” (priority 2017, dated 2019).

Legend:
[1] = pKa of the active agent; format: physicochemical
[2] = test system: Dermatomed porcine ear skin; format: in vitro ADME; conditions: 1 % w/v in HEPES buffer (pH 7.15) containing 25 mM sodium chloride
Description: Untreated porcine ears were procured from a local slaughter house. Dorsal side of the porcine ears was used for the study.. For study #4, dermatomed porcine skin was prepared by dermatoming full thickness skin using Dermatome 75 mm (Nouvag AG TCM 3000, Goldach, Switzerland).
Dermatome is a surgical instrument used to produce thin slices of skin. Dermatoming is refering to the procedure to produce thin layers of the skin by using such device.
In vitro permeation study was performed using Franz diffusion cells (PermeGear V6 station vertical cell). These models contain 6 diffusion cells in each console with 5 ml receptor volume and 9 mm orifice. The diffusion area was 0.64 cm^2.
After washing the cells, receptor solution was left overnight and replaced with fresh sodium chloride solution (0.9 % w/v), 30 minutes prior to mounting the skin. The receptor chamber temperature was maintained at 37°C by the built-in water circulation jacket so as to attain the skin temperature of 32°C.
Skin pieces were then mounted between the donor and receptor compartment (containing 0.9 % (w/v) sodium chloride solution) of Franz diffusion cells with the stratum corneum facing towards the donor side.
The formulation (160 mg formulation containing 1.6 mg active/0.64 sq.cm) was applied in the donor chamber using a positive displacement pipette (Rainin PosD). Simplex formulation was applied in the donor chamber. The donor compartment was left open to mimic in vivo conditions. Six replicates (with the exception of preliminary study 4) were performed for each formulation for each test group (iontophoresis and corresponding passive control - "no current" group) as specified in Table 1 as follows. In the Table 1, the "active agent" is N-acetyl-3-trifluoromethyl-phenyl-(valine-glycine).
Current (0.2 mA/sq.) was applied using silver/silver chloride electrode system and a constant current source (Keithley®; Keithley Instruments, Cleveland, OH, USA). […] Current application was monitored with a chronometer. […]
Receptor samples were taken after stopping the current for the defined duration, which was 20 min in all the studies except study #4, in which sampling was performed at 5, 10, 20, 60, 120, and 240 min. […] The receptor samples were filtered and quantified with methanol calibration using LCMS.
All samples were analyzed by a validated LCMS method which was performed on an Agilent 6410 Triple Quad System to determine how much of the cosmetic agent passed into and through the skin.
Results of the studies were plotted as average amount of active permeated in receptor, quantity of the active in tape strips, and underlying skin for each test group (passive or iontophoresis treatment group). […]

CC(=O)N(c1cccc(C(F)(F)F)c1)C(C(=O)NCC(=O)O)C(C)C (centres unmarked) [active agent, N-acetyl-3-trifluoromethyl-phenyl-(valine-glycine)]
pKa [1]: 3.3
average cumulative amount of active delivered after 20 min ([2]; anodal iontophoresis 0.2 mA/sq.cm compared with passive and cathodal iontophoresis, p<0.05): significantly higher
permeation of the active agent through dermatomed porcine skin over 4 h study duration ([2]; anodal iontophoresis 0.2 mA/sq.cm for 2 h compared with passive and cathodal iontophoresis, p<0.05): significantly enhance
cumulative active permeation after 20 min ([2]; cathodal iontophoresis 0.2 mA/sq.cm compared with passive, p>0.05): no significant difference
cumulative active permeation after 4 h ([2]; cathodal iontophoresis 0.2 mA/sq.cm for 2 h compared with passive, p>0.05): no significant difference
